In patent US10745401B2, “Condensed lactam derivative” (Sumitomo Dainippon Pharma Co., Ltd., priority 2018, dated 2020):

Assays:
[1] = Test 5: predictive test of human half-life (monkey distribution volume, serum unbound fraction, microsomal stability); assay type: in vivo; conditions: predicted from cynomolgus monkey distribution volume (i.v.), serum unbound fraction and human hepatic microsome stability
Description: Test 5: Predictive Test of Human Half-Life
The present compound was intravenously administered to cynomolgus monkey as an aqueous solution in 0.01 mol/L hydrochloric acid. Blood was collected on 5 minutes, 15 minutes, 30 minutes, 1 hour, 2 hours, 4 hours, 6 hours, and 24 hours after the administration. Plasma was obtained from the collected blood, the drug concentration in the plasma was measured by LC-MS, and the distribution volume of monkey was calculated from the transition of the concentration.
The unbound fraction rate of the present compound in human or monkey serum was measured by equilibrium dialysis method.
The half-life in human was calculated according to the following formula using the results of the distribution volume of monkey, the unbound fraction rate in human or monkey serum, and the metabolic stability in human hepatic microsome obtained in Test 3.

hERG channel = hERG channel (Homo sapiens (Human), UniProt Q12809); test: Test 6-1: inhibitory activity for hERG channel (auto patch clamp, Qpatch); assay type: cell-based; conditions: for IC50: whole cell auto patch clamp, hERG-CHO cells, read-out: hERG inhibition IC50; for hERG inhibition IC50 (nmol/L)/5-HT1A Ki (nmol/L): ratio of hERG IC50 to 5-HT1A Ki; for hERG inhibition IC50 (nmol/L)/5-HT2A Ki (nmol/L): ratio of hERG IC50 to 5-HT2A Ki
Summary of the method: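 Whole-cell patch clamp on an automated system using CHO cells stably expressing human hERG (IKr); 15 s pulse interval. Four increasing compound concentrations applied cumulatively; mean peak tail current from last 3 stimulations per concentration used. IC50 from inhibition versus pre-compound current, fitted by Hill equation.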

human 5-HT1A receptor [2] = target: T1, human 5-HT1A receptor (Homo sapiens (Human), UniProt P08908); test: Test 1: binding activity for human 5-HT1A receptor ([3H]8-OH-DPAT, CHO cell membrane fraction)
Summary of the method: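 Membranes incubated with [3H]8-OH-DPAT and compound for 60 min at room temperature, then filtered on polyethylenimine-coated glass-fibre plates and counted by liquid scintillation. IC50 from Hill analysis; Ki = IC50/(1+S/Kd), Kd from saturation binding on the same membranes.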

human D2 receptor = human D2 receptor (Homo sapiens (Human), UniProt P14416); test: Test 1: binding activity for human D2 receptor ([3H]Spiperone, CHO cell membrane fraction); conditions: for Ki: human D2 receptor, [3H]Spiperone; for D2 Ki/5-HT1A Ki / D2 Ki/5-HT2A Ki: selectivity ratio
Summary of the method: (§1)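 Compound displacement of [3H]ketanserin at 5-HT2A or [3H]spiperone at D2 was measured in CHO membrane fractions after 60 min at room temperature, with filtration and scintillation counting. IC50 was converted to Ki by Cheng–Prusoff using ligand concentration and Kd from saturation binding.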

[3] = Test 4: metabolic stability test in human hepatic microsome; assay type: in vitro ADME; conditions: 0.1 mg/mL microsome, 0.1 μmol/L compound, 37° C., 30 minutes
Summary of the method: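 LC-MS quantified remaining parent after 30 min, 37° C, in pH 7.4 25 mmol/L phosphate containing 0.1 mg/mL human hepatic microsomes, 3.2 mmol/L NADPH and 0.1 μmol/L test compound. Value given as −LN(residual ratio)/30/0.1, mL/min/mg protein.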

human 5-HT1A receptor [4] = target: T1, human 5-HT1A receptor; test: Test 2: agonist activity for human 5-HT1A receptor ([35S]GTPγS binding); assay type: biochemical; conditions: for EC50: [35S]GTPγS binding, concentration at which half the activity of Emax was obtained; for Emax at 10 µM: agonist activity in the presence of 10 μM of compound, relative to 100 μmol/L 5-HT
Summary of the method: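 [35S]GTPγS binding read-out: after 60 min at room temperature with test compound in GDP buffer, human 5-HT1A receptor CHO membranes were vacuum-filtered and retained radioactivity scintillation-counted. Agonist activity calculated by formula.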

human 5-HT2A receptor [5] = target: T2, human 5-HT2A receptor (Homo sapiens (Human), UniProt P28223); test: Test 3: antagonist activity for human 5-HT2A receptor (aequorin luminescence, CHO-K1 cells); assay type: cell-based; conditions: CHO-K1 cells, 1 nmol/L 5-HT
Summary of the method: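 CHO-K1 cells transiently co-expressing aequorin, Gα16 and receptor; compound in DMSO added and luminescence recorded on FDSS/μCELL.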

P-gp (MDR1) = P-gp (MDR1) (Homo sapiens (Human), UniProt P08183); test: Test 9: P-gp substrate property (NFR, MDCKII and MDR1-MDCKII cells); assay type: in vitro ADME; conditions: Net Flux Ratio, MDR1-MDCKII vs MDCKII cells
Description: […]
NFR (Net Flux Ratio), which is an index of P-gp substrate property, can be calculated as follows. MDCKII (Madin-Darby canine kidney strain II) cells and MDR1-MDCKII cells in which MDR1 (multidrug resistance protein 1) was overexpressed were used to measure an apparent permeability coefficient (Papp A-B) from lumen (A) to basement membrane (B) and an apparent permeability coefficient (Papp B-A) from basement membrane (B) to lumen (A) of both MDCKII cells and MDR1-MDCKII cells. NFR (Net Flux Ratio) was calculated from the ratio between Ratio (Papp B-A/Papp A-B) of an apparent permeability coefficient of MDR1-MDCKII cells and Ratio of an apparent permeability coefficient of MDCKII cells.

human 5-HT2A receptor [6] = target: T2, human 5-HT2A receptor; test: Test 1: binding activity for human 5-HT2A receptor ([3H]Ketanserin, CHO cell membrane fraction)
Summary of the method: as §1

Chain of hERG channel (Q12809 whole entry): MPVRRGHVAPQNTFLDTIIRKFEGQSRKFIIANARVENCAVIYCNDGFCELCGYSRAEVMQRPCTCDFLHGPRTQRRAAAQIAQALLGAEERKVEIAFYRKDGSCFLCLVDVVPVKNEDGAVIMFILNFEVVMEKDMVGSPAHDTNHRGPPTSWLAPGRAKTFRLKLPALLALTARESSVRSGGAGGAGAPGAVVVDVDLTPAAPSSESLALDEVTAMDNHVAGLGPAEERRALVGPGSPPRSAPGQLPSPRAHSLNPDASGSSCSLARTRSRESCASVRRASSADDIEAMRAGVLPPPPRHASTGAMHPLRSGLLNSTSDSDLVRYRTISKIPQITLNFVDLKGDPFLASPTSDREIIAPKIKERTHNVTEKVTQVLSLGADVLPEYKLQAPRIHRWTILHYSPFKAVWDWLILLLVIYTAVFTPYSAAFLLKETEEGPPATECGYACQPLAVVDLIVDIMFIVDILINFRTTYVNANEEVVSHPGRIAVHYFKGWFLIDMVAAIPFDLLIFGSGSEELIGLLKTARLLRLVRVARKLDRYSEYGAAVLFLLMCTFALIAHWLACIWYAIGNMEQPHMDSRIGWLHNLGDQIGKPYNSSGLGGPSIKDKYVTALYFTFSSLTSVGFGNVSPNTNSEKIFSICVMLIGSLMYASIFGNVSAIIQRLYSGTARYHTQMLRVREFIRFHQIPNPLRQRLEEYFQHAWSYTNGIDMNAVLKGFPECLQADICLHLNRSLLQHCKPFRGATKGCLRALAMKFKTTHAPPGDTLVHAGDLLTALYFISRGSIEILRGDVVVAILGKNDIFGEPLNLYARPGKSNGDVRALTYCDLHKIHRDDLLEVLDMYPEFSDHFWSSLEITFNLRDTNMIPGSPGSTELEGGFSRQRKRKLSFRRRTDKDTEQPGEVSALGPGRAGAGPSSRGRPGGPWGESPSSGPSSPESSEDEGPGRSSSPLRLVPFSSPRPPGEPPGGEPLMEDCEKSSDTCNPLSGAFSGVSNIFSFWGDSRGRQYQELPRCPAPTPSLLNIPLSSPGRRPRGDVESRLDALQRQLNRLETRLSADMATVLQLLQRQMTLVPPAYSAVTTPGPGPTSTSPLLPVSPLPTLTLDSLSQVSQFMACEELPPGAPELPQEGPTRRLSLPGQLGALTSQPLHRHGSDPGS
T2 sequence (P28223 whole entry): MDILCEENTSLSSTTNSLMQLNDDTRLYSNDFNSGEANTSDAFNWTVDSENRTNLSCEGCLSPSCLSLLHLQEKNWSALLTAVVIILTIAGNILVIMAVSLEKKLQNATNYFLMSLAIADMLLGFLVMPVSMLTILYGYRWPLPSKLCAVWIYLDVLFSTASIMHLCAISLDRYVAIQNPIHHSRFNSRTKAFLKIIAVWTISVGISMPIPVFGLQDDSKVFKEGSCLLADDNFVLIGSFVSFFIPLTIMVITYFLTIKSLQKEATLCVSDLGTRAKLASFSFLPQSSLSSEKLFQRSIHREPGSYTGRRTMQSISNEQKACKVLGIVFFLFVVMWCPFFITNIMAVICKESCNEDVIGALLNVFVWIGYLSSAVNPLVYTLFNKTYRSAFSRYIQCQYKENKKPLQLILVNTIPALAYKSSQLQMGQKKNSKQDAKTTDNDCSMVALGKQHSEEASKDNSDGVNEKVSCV
T1 sequence (P08908 whole entry): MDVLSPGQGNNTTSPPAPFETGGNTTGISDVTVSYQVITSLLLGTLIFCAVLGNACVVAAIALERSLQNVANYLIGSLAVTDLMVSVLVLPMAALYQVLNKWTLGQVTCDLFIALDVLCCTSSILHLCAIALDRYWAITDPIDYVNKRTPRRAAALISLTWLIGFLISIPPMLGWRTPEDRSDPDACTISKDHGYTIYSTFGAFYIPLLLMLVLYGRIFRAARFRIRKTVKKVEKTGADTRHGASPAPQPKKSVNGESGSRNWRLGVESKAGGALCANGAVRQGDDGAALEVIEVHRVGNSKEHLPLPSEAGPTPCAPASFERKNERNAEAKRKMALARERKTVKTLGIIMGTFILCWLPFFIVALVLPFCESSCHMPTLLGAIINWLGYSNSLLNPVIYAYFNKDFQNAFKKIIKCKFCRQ
Chain of human D2 receptor (P14416 whole entry): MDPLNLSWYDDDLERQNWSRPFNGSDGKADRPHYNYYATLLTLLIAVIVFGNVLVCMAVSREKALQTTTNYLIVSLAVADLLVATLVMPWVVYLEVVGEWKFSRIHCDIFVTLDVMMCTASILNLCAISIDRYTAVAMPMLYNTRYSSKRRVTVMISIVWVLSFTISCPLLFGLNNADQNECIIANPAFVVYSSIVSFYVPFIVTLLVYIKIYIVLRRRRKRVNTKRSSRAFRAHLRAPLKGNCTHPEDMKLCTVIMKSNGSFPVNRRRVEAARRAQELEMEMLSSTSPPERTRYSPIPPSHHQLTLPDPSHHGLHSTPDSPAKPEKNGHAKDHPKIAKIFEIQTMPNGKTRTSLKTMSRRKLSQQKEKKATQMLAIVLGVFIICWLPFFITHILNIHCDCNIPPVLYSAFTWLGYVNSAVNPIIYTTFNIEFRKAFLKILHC
Chain of P-gp (MDR1) (P08183 whole entry, species assumed): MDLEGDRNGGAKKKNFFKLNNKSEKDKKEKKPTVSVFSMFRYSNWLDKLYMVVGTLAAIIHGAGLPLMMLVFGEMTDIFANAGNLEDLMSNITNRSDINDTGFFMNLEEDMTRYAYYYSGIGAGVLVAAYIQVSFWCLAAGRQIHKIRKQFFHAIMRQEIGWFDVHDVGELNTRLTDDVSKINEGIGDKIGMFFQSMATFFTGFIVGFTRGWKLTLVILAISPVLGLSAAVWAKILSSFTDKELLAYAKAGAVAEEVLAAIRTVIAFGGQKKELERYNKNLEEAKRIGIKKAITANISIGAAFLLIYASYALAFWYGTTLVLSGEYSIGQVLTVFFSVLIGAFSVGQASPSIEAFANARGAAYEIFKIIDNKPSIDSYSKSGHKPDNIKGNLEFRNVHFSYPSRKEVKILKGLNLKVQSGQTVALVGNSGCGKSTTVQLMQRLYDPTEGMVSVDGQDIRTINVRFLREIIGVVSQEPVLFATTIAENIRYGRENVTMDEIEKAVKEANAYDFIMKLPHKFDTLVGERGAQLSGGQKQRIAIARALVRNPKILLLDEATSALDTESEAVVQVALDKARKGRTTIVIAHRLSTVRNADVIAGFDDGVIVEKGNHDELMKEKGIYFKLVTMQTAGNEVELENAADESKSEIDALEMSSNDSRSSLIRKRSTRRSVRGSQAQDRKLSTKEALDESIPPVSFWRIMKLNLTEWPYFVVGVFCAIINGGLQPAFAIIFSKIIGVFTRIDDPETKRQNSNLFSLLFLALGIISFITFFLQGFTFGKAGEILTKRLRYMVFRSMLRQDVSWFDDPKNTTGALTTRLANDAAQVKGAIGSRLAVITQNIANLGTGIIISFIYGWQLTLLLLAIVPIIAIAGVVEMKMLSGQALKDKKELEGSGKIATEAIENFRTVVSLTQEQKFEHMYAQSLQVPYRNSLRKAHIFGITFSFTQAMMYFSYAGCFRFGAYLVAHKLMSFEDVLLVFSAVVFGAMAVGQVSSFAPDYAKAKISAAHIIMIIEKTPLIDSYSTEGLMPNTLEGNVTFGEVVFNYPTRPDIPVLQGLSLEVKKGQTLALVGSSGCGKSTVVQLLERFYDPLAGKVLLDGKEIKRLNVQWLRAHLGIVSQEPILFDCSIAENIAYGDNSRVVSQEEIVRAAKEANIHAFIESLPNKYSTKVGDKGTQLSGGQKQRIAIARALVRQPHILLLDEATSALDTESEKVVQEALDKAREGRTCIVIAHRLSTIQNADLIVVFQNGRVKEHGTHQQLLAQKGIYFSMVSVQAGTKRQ

Compound	half-life [1] [h]	Ki (human 5-HT1A receptor [2]) [µM]	Ki (human D2 receptor) [µM]	Metabolic stability in human hepatic microsome [3] [mL/min/mg protein]	EC50 (human 5-HT1A receptor [4]) [µM]	Emax at 10 µM (human 5-HT1A receptor [4]) [%]	IC50 (human 5-HT2A receptor [5]) [µM]	NFR (P-gp (MDR1))	D2 Ki/5-HT1A Ki (human D2 receptor)	D2 Ki/5-HT2A Ki (human D2 receptor)	Ki (human 5-HT2A receptor [6]) [µM]	IC50 (hERG channel) [µM]	hERG inhibition IC50 (nmol/L)/5-HT1A Ki (nmol/L) (hERG channel)	hERG inhibition IC50 (nmol/L)/5-HT2A Ki (nmol/L) (hERG channel)
Cn1ncc2c1CCCN(CCN1CCC(c3noc4ccccc34)CC1)C2=O [Example 43]	–	0.0013	0.222	<0.01	0.0085	73	0.00652	2.2	171	239	0.00093	2.1	1630	2274
Cc1cc2c(cn1)C(=O)N(CCN1CCN(c3noc4ccccc34)CC1)CC2 [Example 3, 2-{2-[4-(1,2-Benzoisoxazol-3-yl)piperazin-1-yl]ethyl}-6-methyl-3,4-dihydro-2,7-naphthyridin-1(2H)-one]	> 30	0.0027	1.26	<0.01	0.0101	69	–	–	–	–	–	7.9	–	–
Cn1ccc2c1CCN(CCN1CCC(c3noc4ccccc34)CC1)C2=O [Example 60]	–	0.0137	0.26	0.018	0.043	54	0.00391	1.5	19	236	0.0011	0.7	51	640
Cn1ncc2c1CCCN(CCN1CCN(c3noc4ccccc34)CC1)C2=O [Example 80]	10	–	–	0.012	–	63	0.055	–	–	–	0.0028	15.4	–	–

Continued, in another order:

half-life [1] [h]	Ki (human 5-HT1A receptor [2]) [µM]	Ki (human D2 receptor) [µM]	Metabolic stability in human hepatic microsome [3] [mL/min/mg protein]	EC50 (human 5-HT1A receptor [4]) [µM]	Emax at 10 µM (human 5-HT1A receptor [4]) [%]	IC50 (human 5-HT2A receptor [5]) [µM]	NFR (P-gp (MDR1))	D2 Ki/5-HT1A Ki (human D2 receptor)	D2 Ki/5-HT2A Ki (human D2 receptor)	Ki (human 5-HT2A receptor [6]) [µM]	Compound	IC50 (hERG channel) [µM]	hERG inhibition IC50 (nmol/L)/5-HT1A Ki (nmol/L) (hERG channel)	hERG inhibition IC50 (nmol/L)/5-HT2A Ki (nmol/L) (hERG channel)
> 23	0.0063	0.916	<0.01	0.037	49	–	–	–	–	–	Cc1ncc2c(n1)CCN(CCN1CCC(c3noc4ccccc34)CC1)C2=O [Example 88, 6-{2-[4-(1,2-Benzoisoxazol-3-yl)piperidin-1-yl]ethyl}-2-methyl-7,8-dihydropyrido[4,3-d]pyrimidin-5(6H)-one]	5.6	–	–
> 45	0.00047	0.129	<0.01	0.0058	62	–	–	–	–	–	Cn1ccc2c1CCCN(CCN1CCC(c3noc4ccccc34)CC1)C2=O [Example 103, 5-{2-[4-(1,2-Benzoisoxazol-3-yl)piperidin-1-yl]ethyl}-1-methyl-5,6,7,8-tetrahydropyrrolo[3,2-c]azepin-4(1H)-one]	1.4	–	–
–	0.00045	0.903	0.085	0.0027	78	0.006	1.8	2007	1456	0.00062	Cn1cc2c(n1)CCN(CCN1CCN(c3nsc4ccccc34)CC1)C2=O [Example 36, 5-{2-[4-(1,2-Benzoisothiazol-3-yl)piperazin-1-yl]ethyl}-2-methyl-2,5,6,7-tetrahydro-4H-pyrazolo[4,3-c]pyridin-4-one]	3.2	7112	5162
8	0.00268	0.267	0.017	0.035	71	–	–	–	–	–	Cc1c2c(nn1C)CCN(CCN1CCC(c3noc4ccccc34)CC1)C2=O [Example 37, 5-{2-[4-(1,2-Benzoisoxazol-3-yl)piperidin-1-yl]ethyl}-2,3-dimethyl-2,5,6,7-tetrahydro-4H-pyrazolo[4,3-c]pyridin-4-one]	1	–	–
